# Experimental data as given in patent publication US20020022647A1, “2-(4-bromo or 4-iodo phenylamino) benzoic acid derivatives” (priority 1997, published 2002).
# Experiments:
# [1] = biological target: GST-MEK (p45MEK) and GST-MAPK (p44MAP kinase) (Homo sapiens, UniProt Q02750); assay: Cascade assay for inhibitors of the MAP kinase pathway (In Vitro); type: biochemical; conditions: incorporation of 32P into myelin basic protein
# Procedure: Cascade Assay for Inhibitors of the MAP Kinase Pathway
# Incorporation of ^32P into myelin basic protein (MBP) was assayed in the presence of a glutathione S-transferase fusion protein containing p44MAP kinase (GST-MAPK) and a glutathione S-transferase fusion protein containing p45MEK (GST-MEK). The assay solution contained 20 mM HEPES, pH 7.4, 10 mM MgCl2, 1 mM MnCl2, 1 mM EGTA, 50 μM [γ-^32P]ATP, 10 μg GST-MEK0.5 μg GST-MAPK and 40 μg MBP in a final volume of 100 μL. Reactions were stopped after 20 minutes by addition of trichloroacetic acid and filtered through a GF/C filter mat. ^32P retained on the filter mat was determined using a 1205 Betaplate. Compounds were assessed at 10 μM for ability to inhibit incorporation of ^32P.
# To ascertain whether compounds were inhibiting GST-MEK or GST MAPK, two additional protocols were employed. In the first protocol, compounds were added to tubes containing GST-MEK, followed by addition of GST-MAPK, MBP and [γ-^32P]ATP. In the second protocol, compounds were added to tubes containing both GST-MEK and GST-MAPK, followed by MBP and [γ-^32P]ATP.
# [2] = tested on: activation of MAP kinase in whole cells; assay: In Vivo (Cell Culture): whole cell MAP kinase assay; type: cell-based
# Procedure: Whole Cell MAP Kinase Assay
# To determine if compounds were able to block activation of MAP kinase in whole cells, the following protocol was used: Cells were plated in multi-well plates and grown to confluence. Cells were then serum-deprived overnight. Cells were exposed to the desired concentrations of compound or vehicle (DMSO) for 30 minutes, followed by addition of a growth factor, for example, PDGF (100 ng/mL). After a 5-minute treatment with the growth factor, cells were washed with PBS, then lysed in a buffer consisting of 70 mM NaCl, 10 mM HEPES (pH 7.4), 50 mM glycerol phosphate, and 1% Triton X-100. Lysates were clarified by centrifugation at 13,000× g for 10 minutes. Five micrograms of the resulting supernatants were incubated with 10 μg microtubule associated protein-2 (Map2) for 15 minutes at 30° C. in a final volume of 25 μL containing 50 mM Tris (pH 7.4), 10 mM MgCl2, 2 mM EGTA and 30 uM [γ-^32P]ATP. Reactions were terminated by addition of Laemmli sample buffer. Phosphorylated Map2 was resolved on 7.5% acrylamide gels and incorporated radioactivity determined by autoradiography and subsequent excision of the bands followed by scintillation counting.
# Sequence of GST-MEK (p45MEK) and GST-MAPK (p44MAP kinase) (Q02750 whole entry): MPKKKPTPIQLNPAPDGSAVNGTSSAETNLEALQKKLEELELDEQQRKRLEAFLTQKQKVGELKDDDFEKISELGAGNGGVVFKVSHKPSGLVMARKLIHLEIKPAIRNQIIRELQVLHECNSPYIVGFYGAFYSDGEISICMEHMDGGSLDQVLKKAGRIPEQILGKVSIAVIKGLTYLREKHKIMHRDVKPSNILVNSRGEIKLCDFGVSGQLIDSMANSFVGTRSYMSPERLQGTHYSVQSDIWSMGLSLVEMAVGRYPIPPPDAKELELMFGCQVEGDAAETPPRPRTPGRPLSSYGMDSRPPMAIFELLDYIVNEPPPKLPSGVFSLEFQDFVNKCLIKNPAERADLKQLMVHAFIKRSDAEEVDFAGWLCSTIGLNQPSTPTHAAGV
IC50 [1] [µM],Compound,other results
0.226,"Cc1cc(I)ccc1Nc1ccc(Cl)cc1C(=O)NCCO [Example 31, 5-Chloro-N-(2-hydroxyethl)-2-(4-iodo-2-methyl-phenylamino)-benzamide]",melting point: 120 to 121 °C
0.418,"Cc1cc(I)ccc1Nc1cc(F)ccc1CO [Example 49, 4-Fluoro-2-(4-iodo-2-methyl-2henylamino)-benzyl alcohol]",melting point: 99 to 100.5 °C
0.253,"Cc1cc(I)ccc1Nc1ccc(Br)cc1C(=O)NCCCN1CCN(CCO)CC1 [Example 92, 5-Bromo-N-{3-[4-(2-hydroxy-ethyl)-piperazin-1-yl]-propyl}-2-(4-iodo-2-methyl-phenylamino)-benzamide]",–
0.521,"CCN(CC)CCNC(=O)c1cc(Cl)ccc1Nc1ccc(I)cc1C [Example 93, 5-Chloro-N-(2-diethylamino-ethyl)-2-(4-iodo-2-methyl-phenylamino)-benzamide]",–
1.001,"Cc1cc(I)ccc1Nc1ccc([N+](=O)[O-])cc1C(=O)N1CCC(O)C1 (stereo not drawn) [Example 95, (3-Hydroxy-pyrrolidin-1-yl)-[2-(4-iodo-2-methyl-phenylamino)-5-nitro-phenyl]-]",–
0.374,"Cc1cc(I)ccc1Nc1ccc(Cl)cc1C(=O)NCCN1CCCC1 [Example 96, 5-Chloro-2-(4-iodo-2-methyl-phenylamino)-N-(2-pyrrolidin-1-yl-ethyl)-benzamide]",–
1.994,"Cc1cc(I)ccc1Nc1ccc(Br)cc1C(=O)N1CCC(O)C1 (stereo not drawn) [Example 100, [5-Bromo-2-(4-iodo-2-methyl-phenylamino)-phenyl]-(3-hydroxy-pyrrolidin-1-yl)-]",–
0.278,"Cc1cc(I)ccc1Nc1ccc([N+](=O)[O-])cc1C(=O)NC1CCCCC1 [Example 184, N-Cyclohexyl-2-(4-iodo-2-methyl-phenylamino)-5-nitro-benzamide]",–
0.561,"Cc1cc(I)ccc1Nc1ccc(Cl)cc1C(=O)NCCO [Example 187, 5-Chloro-N-(2-hydroxy-ethyl)-2-(4-iodo-2-methyl-phenylamino)-benzamide]",–
0.771,"Cc1cc(I)ccc1Nc1ccc(Br)cc1C(=O)NCCO [Example 188, 5-Bromo-N-(2-hydroxy-ethyl)-2-(4-iodo-2-methyl-phenylamino)-benzamide]",–
0.859,"Cc1cc(I)ccc1Nc1ccc([N+](=O)[O-])cc1C(=O)N(C)c1ccccc1 [Example 189, 2-(4-Iodo-2-methyl-phenylamino)-N-methyl-5-nitro-N-phenyl-benzamide]",–
0.921,"Cc1cc(I)ccc1Nc1ccc(Cl)cc1C(=O)N(C)c1ccccc1 [Example 190, 5-Chloro-2-(4-iodo-2-methyl-phenylamino)-N-methyl-N-phenyl-benzamide]",–
1.355,"Cc1cc(I)ccc1Nc1ccc(I)cc1C(=O)NCCO [Example 191, N-(2-Hydroxy-ethyl)-5-iodo-2-(4-iodo-2-methyl-phenylamino)-benzamide]",–
1.797,"Cc1cc(I)ccc1Nc1ccc(Cl)cc1C(=O)NC1CC1 [Example 192, 5-Chloro-N-cyclopropyl-2-(4-iodo-2-methyl-phenylamino)-benzamide]",–
2.902,"C=CCNC(=O)c1cc(Cl)ccc1Nc1ccc(I)cc1C [Example 193, N-Allyl-5-chloro-2-(4-iodo-2-methyl-phenylamino)-benzamide]",–
4.952,"Cc1cc(I)ccc1Nc1ccc(F)cc1C(=O)N(C)c1ccccc1 [Example 194, 5-Fluoro-2-(4-iodo-2-methyl-phenylamino)-N-methyl-N-phenyl-benzamide]",–
1.215,Cc1cc(I)ccc1Nc1ccccc1-c1nnn[nH]1 [Example 208],melting point: 231 °C (dec.)
1.372,Cc1cc(I)ccc1Nc1ccc([N+](=O)[O-])cc1-c1nnn[nH]1 [Example 209],melting point: 205 to 208 °C

Compound,IC50 [1] [µM],other results
"Cc1cc(I)ccc1Nc1ccc(Cl)cc1C(=O)NCC(=O)O [Example 40, [5-Chloro-2-(4-iodo-2-methyl-phenylamino)-benzoylamno]-acetic acid]",0.651,inhibition at 30 µM ([2]; at 30 μM): 30%
"Cc1cc(I)ccc1Nc1c(C(=O)NCCO)cc(Br)c(F)c1F [Example 53, 5-Bromo-3,4-difluoro-N-(2-hydroxy-ethyl)-2-(4-iodo-2-methyl-phenylamino)-benzamide]",0.047,IC50 [2]: 0.54 µM
"Cc1cc(I)ccc1Nc1ccc([N+](=O)[O-])cc1C(=O)NCc1ccncc1 [Example 91, 2-(4-Iodo-2-methyl-phenylamino)-5-nitro-N-pyridin-4-yl methyl-benzamide]",2.071,–
"Cc1cc(I)ccc1Nc1ccc(F)cc1C(=O)NOCc1ccccc1 [Example 186, N-Benzy1oxy-5-fluoro-2-(4-iodo-2-methyl-phenylamino)-benzamide]",0.555,–
"Cc1cc(I)ccc1Nc1ccc([N+](=O)[O-])cc1C(=O)NCCO [Example 195, N-(2-Hydroxy-ethyl)-2-(4-iodo-2-methyl-phenylamino)-s-nitro-benzamide]",12.8,–
"O=C(O)c1cc(Br)c(F)c(F)c1Nc1ccc(I)cc1Cl [Example 220, 5-Bromo-2-(2-chloro-4-iodo-phenylamino)-3,4-difluoro-benzoic acid]",0.029,–
